Data on 19 compounds can be found in patent US8901147B2, “Bi-heteroaryl compounds as Vps34 inhibitors” (Novartis AG, priority 2010, dated 2014).

For the assay, the target named is recombinant human Vps34 (Homo sapiens, UniProt Q8NEB9). In words: Vps34 KinaseGlo assay. The class given is biochemical. Particulars: KinaseGlo luminescence ATP detection; PI/OG substrate; 1 μM ATP; room temperature; 8 concentrations, n=2. How it is done:
It was then resuspended in 3% OctylGlucoside by vortexing and stored at 4° C. 5 μL of a mix of PI/OG with recombinant human Vps34 were added. Kinase reactions were started by addition of 5 μl of ATP-mix containing in a final volume 10 μL 10 mM TRIS-HCl pH 7.5, 3 mM MgCl2, 50 mM NaCl, 0.05% CHAPS, 1 mM DTT and 1 μM ATP, and occurred at room temperature. Reactions were stopped with 10 μl of KinaseGlo and plates were read 10 minutes later in a Synergy2 reader using an integration time of 0.1 seconds per well.
A general note: Kinase-Glo measures the ATP left after a reaction by luminescence.

Chain of recombinant human Vps34 (Q8NEB9 whole entry): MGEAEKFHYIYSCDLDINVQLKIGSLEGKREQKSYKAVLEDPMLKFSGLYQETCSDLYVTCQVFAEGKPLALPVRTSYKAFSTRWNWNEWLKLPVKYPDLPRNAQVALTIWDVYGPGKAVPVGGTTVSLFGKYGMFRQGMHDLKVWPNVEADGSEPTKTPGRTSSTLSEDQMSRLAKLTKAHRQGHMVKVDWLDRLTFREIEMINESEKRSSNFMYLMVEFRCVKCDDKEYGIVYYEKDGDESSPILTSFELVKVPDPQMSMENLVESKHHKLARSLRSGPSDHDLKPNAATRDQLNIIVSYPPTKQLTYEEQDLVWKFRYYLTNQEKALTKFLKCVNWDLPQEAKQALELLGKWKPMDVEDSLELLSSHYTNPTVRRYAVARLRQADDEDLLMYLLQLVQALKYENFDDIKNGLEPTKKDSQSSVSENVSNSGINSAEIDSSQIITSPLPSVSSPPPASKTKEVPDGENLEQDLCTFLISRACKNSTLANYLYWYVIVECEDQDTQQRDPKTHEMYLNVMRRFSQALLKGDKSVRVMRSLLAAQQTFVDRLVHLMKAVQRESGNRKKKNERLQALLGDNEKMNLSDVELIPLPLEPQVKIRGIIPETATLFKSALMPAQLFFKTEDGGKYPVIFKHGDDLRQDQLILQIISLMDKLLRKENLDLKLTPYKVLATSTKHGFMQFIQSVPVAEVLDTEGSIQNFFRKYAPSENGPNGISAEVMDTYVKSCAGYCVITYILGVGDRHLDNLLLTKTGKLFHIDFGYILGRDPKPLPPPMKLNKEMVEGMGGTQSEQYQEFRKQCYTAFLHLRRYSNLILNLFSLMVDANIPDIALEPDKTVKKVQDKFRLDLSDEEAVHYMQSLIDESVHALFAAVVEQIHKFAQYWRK

Broadly, the IC50 is the concentration at which inhibition is half-maximal. Take `CNc1ncc(-c2ccnc(NC3CCCC3)n2)c(CC2CC2)n1` [Example 14h, N^2-cyclopentyl-4′-(cyclopropylmethyl)-N^2′-methyl-4,5′-bipyrimidine-2,2′-diamine]: the IC50 worked out at 1360 nM.

Consider `CC(CO)Nc1ncc(-c2ccnc(Nc3ccncc3)n2)c(CC2CC2)n1` (stereo not shown) [Example 10o, 2-(4′-(cyclopropylmethyl)-2-(pyridin-4-ylamino)-4,5′-bipyrimidin-2′-ylamino)propan-1-ol], for which the IC50 came out at 31.5 nM.

As to `Nc1ncc(-c2ccnc(NCc3ccco3)n2)c(CC2CC2)n1` [Example 15k, 4′-(cyclopropylmethyl)-N^2-(furan-2-ylmethyl)-4,5′-bipyrimidine-2,2′-diamine], the IC50 was 781 nM.

With `N#Cc1ccc(Nc2nccc(-c3cnc(N)nc3CC3CC3)n2)cc1` [Example 15x, 4-(2′-amino-4′-(cyclopropylmethyl)-4,5′-bipyrimidin-2-ylamino)benzonitrile], the IC50 is 27 nM.

For the compound `CNc1ncc(-c2ccnc(NC3CCC(N)CC3)n2)c(CC2CC2)n1` (stereo not shown) [Example 14j, N^2-(4-aminocyclohexyl)-4′-(cyclopropylmethyl)-N^2′-methyl-4,5′-bipyrimidine-2,2′-diamine], the IC50 was found to be 411 nM.

On to `CCc1nc(NCC(C)(C)O)ncc1-c1ccnc(Nc2ccc(C#N)cc2)n1` [Example 37a, 4-(4′-ethyl-2′-(2-hydroxy-2-methylpropylamino)-4,5′-bipyrimidin-2-ylamino)benzonitrile], for which the IC50 was 31 nM.

Take `CC(C)(O)CNc1ncc(-c2ccnc(Nc3ccc(S(C)(=O)=O)cc3)n2)c(CC2CC2)n1` [Example 16d, 1-(4′-(cyclopropylmethyl)-2-(4-(methylsulfonyl)phenylamino)-4,5′-bipyrimidin-2′-ylamino)-2-methylpropan-2-ol]: the IC50 is 26 nM.

Consider `CC(C)(O)CNc1ncc(-c2ccnc(Nc3ccc(C#N)cc3)n2)c(C(F)(F)F)n1` [Example 25, 4-(2′-(2-hydroxy-2-methylpropylamino)-4′-(trifluoromethyl)-4,5′-bipyrimidin-2-ylamino)benzonitrile], for which the IC50 amounted to 117 nM.

`Nc1ncc(-c2ccnc(NC3CCCOC3)n2)c(CC2CC2)n1` (stereo not shown) [Example 15d, 4′-(cyclopropylmethyl)-N2-(tetrahydro-2H-pyran-3-yl)-4,5′-bipyrimidine-2,2′-diamine]: the IC50 was 1500 nM.

On to `CC(C)CNc1ncc(-c2ccnc(Nc3ccncc3)n2)c(CC2CC2)n1` [Example 10d, 4′-(cyclopropylmethyl)-N^2′-isobutyl-N^2-(pyridin-4-yl)-4,5′-bipyrimidine-2,2′-diamine], for which the IC50 was 72 nM.

Turning to `CNc1ncc(-c2ccnc(NC3CCN(C)CC3)n2)c(CC2CC2)n1` [Example 14r, 4′-(cyclopropylmethyl)-N^2′-methyl-N^2-(1-methylpiperidin-4-yl)-4,5′-bipyrimidine-2,2′-diamine], the IC50 was found to be 1540 nM.

In the case of `COCCNc1ncc(-c2ccnc(Nc3ccncc3)n2)c(CC2CC2)n1` [Example 10n, 4′-(cyclopropylmethyl)-N^2′-(2-methoxyethyl)-N^2-(pyridin-4-yl)-4,5′-bipyrimidine-2,2′-diamine], the IC50 turned out to be 31 nM.

As to `c1cc(Nc2nccc(-c3cnc(NC4CCCCC4)nc3CC3CC3)n2)ccn1` [Example 12b, N^2′-cyclohexyl-4′-(cyclopropylmethyl)-N^2-(pyridin-4-yl)-4,5′-bipyrimidine-2,2′-diamine], the half-inhibitory concentration (IC50) is 570 nM.

Turning to `CNc1ncc(-c2ccnc(N[C@H]3CC[C@H](O)CC3)n2)c(CC2CC2)n1` [Example 6e, (1r, 4r)-4-(4′-(cyclopropylmethyl)-2′-(methylamino)-4,5′-bipyrimidin-2-ylamino)cyclohexanol], the IC50 stood at 111 nM.

Turning to `CC(O)CNc1ncc(-c2ccnc(Nc3ccncc3)n2)c(CC2CC2)n1` (stereo not shown) [Example 10j, 1-(4′-(cyclopropylmethyl)-2-(pyridin-4-ylamino)-4,5′-bipyrimidin-2′-ylamino)propan-2-ol], the concentration for half-maximal inhibition (IC50) came out at 29 nM.

As for `CNc1ncc(-c2ccnc(NCCCN)n2)c(CC2CC2)n1` [Example 14s, N^2-(3-aminopropyl)-4′-(cyclopropylmethyl)-N^2′-methyl-4,5′-bipyrimidine-2,2′-diamine], the IC50 stood at 7130 nM.

Take `CNc1ncc(-c2ccnc(NC3CCOCC3)n2)c(CC2CC2)n1` [Example 14g, 4′-(cyclopropylmethyl)-N^2′-methyl-N^2-(tetrahydro-2H-pyran-4-yl)-4,5′-bipyrimidine-2,2′-diamine]: the half-inhibitory concentration (IC50) amounted to 398 nM.

For `Nc1ncc(-c2ccnc(NCc3cccnc3)n2)c(CC2CC2)n1` [Example 15q], the IC50 was 1290 nM.

In the case of “(S)-1-[4′-Cyclopropylmethyl-2-(pyridin-4-ylamino)-[4,5]bipyrimidinyl-2′-ylamino]-propan-2-ol [Example 10k]”, the IC50 amounted to 276 nM.
